Patent US11198680B2 (BioAxone BioSciences, Inc., priority 2016, dated 2021)
Like-named read-outs stand apart in the source and are kept apart here.

How the values were obtained:
ROCK1 = ROCK1 (Homo sapiens (Human), UniProt Q13464); test: Direct filter-binding radiometric kinase assay, IC50 determination; format: biochemical
Procedure: Variations in ATP concentrations were tested to better understand potential selectivity in ischemic and diseased tissue where ATP concentrations may be low and impact selectivity.
[…] Both services use a direct filter-binding, radiometric kinase assay with slight variation in protocol.
The top concentration tested was 100 μM for both services. Test compounds were prepared in 100% DMSO at 50× final test concentration and were diluted to 1× in the assay with a final DMSO concentration of 2%.
For one assay, the substrate […] (SEQ ID NO:1) (30 μM) was mixed with reaction buffer (Table 4) and the kinase domain from either the ROCK1 or ROCK2 (as indicated in Table 4). Next, the compounds (in DMSO) were delivered into the mixture via acoustic mixing technology (Echo550, nanoliter range) (SelectScience, Waltham, Mass.), and incubated at RT for 20 min. […] Reactions were then spotted onto P81 ion exchange paper followed by scintillation counting.
The reaction was stopped by the addition of 3% phosphoric acid and 10 μL of the reaction was spotted onto P30 filtermat, washed 3 times in 75 mM phosphoric acid and once in methanol prior to scintillation counting.

[1] = test system: ROCK2 activation (phospho-cofilin); test: Transient MCAO stroke model, phospho-cofilin Western blot left versus right brain; format: in vivo, mouse
Procedure: The murine intraluminal monofilament model of middle cerebral artery occlusion (MCAO) is used on mice in this study. MCAO involves the insertion of a surgical filament into the external carotid artery and threading it forward into the internal carotid artery until the tip occludes the origin of the MCA, resulting in a cessation of blood flow and subsequent brain infarction in the MCA territory. The technique is used herein to model transient occlusion. If the filament is removed after 1 h, reperfusion is achieved (transient MCAO). This study determines the most efficacious dose and route of administration that reduce Rho-kinase 2 (ROCK2) activation following transient MCAO-induced stroke in mice. The pharmacodynamic response is also determined in this study.
Twenty-eight 9-wk old C57BL/6 (Charles River Laboratories) were used in this study. For surgery, the mouse was placed in a supine position on an infrared heating pad. The fur over the ventral neck was shaved and the skin was disinfected with 70% ethanol and povidone iodine. Under a stereo dissecting microscope, a 1 cm midline incision was made on the neck and retractors were used to expose the left common carotid artery (CCA), the external carotid artery (ECA) and the internal carotid artery (ICA). The arteries were carefully dissected to free them from surrounding nerves and fascia. The ECA was dissected further distally and two 8-0 silk sutures are tied around the ECA stump and a vascular clamp was applied at the bifurcation of the CCA into the ECA and ICA. A small incision was made at the end of ECA stump with Vannas-style spring scissors. A blunt 5-0 monofilament suture (Doccol) was inserted into the incision and advanced from the lumen of the ECA into the ICA for a distance of 9-10 mm beyond the bifurcation of CCA to occlude the origin of MCA. For the mouse model, a distance of 9 mm-11 mm rostral to the CCA bifurcation is inserted. After 60 min., the monofilament was removed. The incision was sutured with 4.0 prolene sutures. […] The mouse is allowed to recover on a heating pad until thermoregulation is re-established.
For Western blot analysis, mice were anesthetized using isoflurane and decapitated. […]
20 μL protease inhibitor (Halt, Protease, Fisher Scientific, Pittsburgh, Pa.) and 10 μL phosphatase inhibitor (Fisher Scientific) were added to 1 mL RIPA buffer (Santa Cruz Biotechnology, Dallas, Tex.). […] The protein concentration of each sample was determined using the DC Protein Assay Kit and following the manufacturer's instructions.
The left and right hemispheres of each brain were homogenized and prepared for Western blotting, and the signal of phospho-cofilin was measured quantitatively by densitometry compared to an internal standard, cyclophilin. […]

[2] = Daily repeat dosing for 2 weeks in normal mice, adverse effects; format: in vivo, mouse
Procedure: In a separate set of experiments, daily repeat dosing experiments were performed to assess adverse effects. […] During the course of the experiment, animals were monitored daily for the appearance of any clinical signs. Hematology, blood chemistry, and histopathology were followed at termination of the experiment.

[3] = test system: cynomolgus monkey hepatocytes; test: Metabolism in cultured hepatocytes; format: in vitro ADME
mouse hepatocytes = test: Metabolism in cultured hepatocytes; format: in vitro ADME
rat hepatocytes = test: Metabolism in cultured hepatocytes; format: in vitro ADME
Procedure: Test articles were incubated in duplicate rat hepatocytes at 37° C. The reaction contained […] KHB buffer, a pH 7.4. At indicated times (0 min, 15 min, 30 min, 60 min, 120 min), an aliquot was removed from each experimental and control reaction and mixed with an equal volume of ice-cold methanol. Stopped reactions were incubated at least ten minutes at −20° C. The samples were centrifuged to remove precipitated protein, and the supernatants were analyzed by LC-MS/MS.

ROCK2 [4] = molecular target: T1, ROCK2 (Homo sapiens (Human), UniProt O75116); details: ratio of dissociation constants ROCK1/ROCK2
Procedure: (§1) The assay is performed by combining the DNA-tagged kinase, immobilized ligand, and a test compound. The ability of the test compound to compete with the immobilized ligand is measured via quantitative PCR of the DNA tag.
(§2) The highest concentration tested was 30 μM.

ROCK2 [5] = molecular target: T1, ROCK2; test: biochemical
Procedure: as §1, §2

[6] = Systolic blood pressure in mice, tail cuff plethysmography; details: 0.5, 1, 3 mg/kg in drinking water; Example 18, present tense
Procedure: Three test cohorts of mice are housed with unlimited access to normal chow and drinking water. For the first 5 days, the mice are handled daily to habituate them to contact and their blood pressures measured using a multi-animal tail cuff plethysmography apparatus (MRBP Tail Cuff Blood Pressure System; IITC Life Science; Woodland Hills, Calif.). […] These values serve as the baseline.
The third cohort receives normal, unadulterated drinking water. On day 8, blood pressure is measured for all mice.
After the day 8 blood pressure measurement, drug dosage in the 2 test cohorts is increased to 1 mg/kg-body weight and the cohort continues for 3 days at the new dose. On day 11, blood pressure is again recorded by tail cuff plethysmography for all mice during a 5 min. recording session.
Following the blood pressure recording, ON DAY 11, drug dosages in drinking water of test groups are increased up to 3 mg/kg-body weight and the cohorts continue for 3 days at the new dose. On day 14, blood pressure is recorded by tail cuff plethysmography for all mice during a 5 min. recording session.

ROCK2 [7] = molecular target: T1, ROCK2; test: ROCK2 inhibition curves, MYPT1 substrate plate assay; format: biochemical; details: purified ROCK2, MYPT1 substrate
Procedure: Each compound was dissolved at 100 mM in DMSO. This compound-DMSO solution is diluted to 500 μM in dH2O. Serial dilutions were prepared so that a semi-log range of compound is present after being diluted 5× in other assay reagents, from 100 μM through 1 nM.
10 μL of each concentration of each compound was added in duplicate to individual wells of a 96-well Maxisorp plate (ThermoFisher) pre-coated with the ROCK2 substrate MYPT1 (ThermoFisher). dH2O is added as a negative control.
Using a multichannel pipettor, […] of final volume per well was made by the addition of the following of each solution to begin the reaction: 10 μL 20 mM MOPS pH 7.2, 25 mM β-glycerophosphate, 5 mM EGTA, 1 mM Na3VO4, and 1 mM DTT, 10 μL 50 μM ATP, 10 μL 75 mM MgCl2, and 10 μL 1 mU/μL ROCK2 solution. […]
100 μL TMB/E solution was added to each well with a multichannel pipette. Upon sufficient color development, the reaction was stopped using 100 μL stop solution and absorbance read using a Wallac Victor2 plate reader at 450 nm.
Because absorbance values proportional to ROCK2 activity, plotting absorbance at 450 nm versus final concentration of metabolite and parent compound provides inhibition curves. Relative inhibitory profiles were determined through 4PL analysis of these curves. Variations in calculated IC50 are common before assay optimization due to variations in experimental variables.

Chain of ROCK1 (Q13464 2-1354 limits assumed): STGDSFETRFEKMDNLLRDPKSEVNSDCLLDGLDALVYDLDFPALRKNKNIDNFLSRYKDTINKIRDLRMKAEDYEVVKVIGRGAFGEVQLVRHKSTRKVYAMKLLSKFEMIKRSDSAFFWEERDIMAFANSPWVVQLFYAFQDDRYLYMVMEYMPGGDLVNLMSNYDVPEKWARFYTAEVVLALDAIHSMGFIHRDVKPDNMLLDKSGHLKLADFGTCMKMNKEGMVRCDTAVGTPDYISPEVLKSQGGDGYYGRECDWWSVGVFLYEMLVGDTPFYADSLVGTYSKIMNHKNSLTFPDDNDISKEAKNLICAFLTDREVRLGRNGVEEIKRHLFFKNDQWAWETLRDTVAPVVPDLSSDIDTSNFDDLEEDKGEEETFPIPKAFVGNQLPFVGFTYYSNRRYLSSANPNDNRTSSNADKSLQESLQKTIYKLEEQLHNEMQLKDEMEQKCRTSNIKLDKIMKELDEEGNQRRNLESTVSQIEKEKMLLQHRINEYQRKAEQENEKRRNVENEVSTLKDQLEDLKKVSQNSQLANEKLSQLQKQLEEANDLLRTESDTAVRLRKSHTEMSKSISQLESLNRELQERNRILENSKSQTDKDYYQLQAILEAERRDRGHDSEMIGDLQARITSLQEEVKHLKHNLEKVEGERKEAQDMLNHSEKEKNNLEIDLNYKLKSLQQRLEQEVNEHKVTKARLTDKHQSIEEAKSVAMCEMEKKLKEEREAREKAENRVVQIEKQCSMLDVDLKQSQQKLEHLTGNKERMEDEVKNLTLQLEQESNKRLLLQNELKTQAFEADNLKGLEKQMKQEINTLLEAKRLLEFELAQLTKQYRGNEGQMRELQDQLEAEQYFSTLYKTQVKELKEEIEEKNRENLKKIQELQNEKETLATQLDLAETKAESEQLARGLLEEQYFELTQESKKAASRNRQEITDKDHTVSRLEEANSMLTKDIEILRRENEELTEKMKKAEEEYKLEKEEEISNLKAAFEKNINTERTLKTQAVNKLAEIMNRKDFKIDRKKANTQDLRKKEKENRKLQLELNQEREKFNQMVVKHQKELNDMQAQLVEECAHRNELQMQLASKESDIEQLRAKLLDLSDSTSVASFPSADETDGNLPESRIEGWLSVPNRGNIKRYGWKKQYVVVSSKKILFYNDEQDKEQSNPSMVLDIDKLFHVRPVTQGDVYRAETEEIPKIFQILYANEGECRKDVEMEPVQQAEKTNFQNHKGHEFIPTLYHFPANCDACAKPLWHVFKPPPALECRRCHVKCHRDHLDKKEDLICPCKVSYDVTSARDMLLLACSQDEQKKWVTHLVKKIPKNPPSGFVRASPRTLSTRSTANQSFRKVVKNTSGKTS
T1 sequence (O75116 whole entry, species assumed): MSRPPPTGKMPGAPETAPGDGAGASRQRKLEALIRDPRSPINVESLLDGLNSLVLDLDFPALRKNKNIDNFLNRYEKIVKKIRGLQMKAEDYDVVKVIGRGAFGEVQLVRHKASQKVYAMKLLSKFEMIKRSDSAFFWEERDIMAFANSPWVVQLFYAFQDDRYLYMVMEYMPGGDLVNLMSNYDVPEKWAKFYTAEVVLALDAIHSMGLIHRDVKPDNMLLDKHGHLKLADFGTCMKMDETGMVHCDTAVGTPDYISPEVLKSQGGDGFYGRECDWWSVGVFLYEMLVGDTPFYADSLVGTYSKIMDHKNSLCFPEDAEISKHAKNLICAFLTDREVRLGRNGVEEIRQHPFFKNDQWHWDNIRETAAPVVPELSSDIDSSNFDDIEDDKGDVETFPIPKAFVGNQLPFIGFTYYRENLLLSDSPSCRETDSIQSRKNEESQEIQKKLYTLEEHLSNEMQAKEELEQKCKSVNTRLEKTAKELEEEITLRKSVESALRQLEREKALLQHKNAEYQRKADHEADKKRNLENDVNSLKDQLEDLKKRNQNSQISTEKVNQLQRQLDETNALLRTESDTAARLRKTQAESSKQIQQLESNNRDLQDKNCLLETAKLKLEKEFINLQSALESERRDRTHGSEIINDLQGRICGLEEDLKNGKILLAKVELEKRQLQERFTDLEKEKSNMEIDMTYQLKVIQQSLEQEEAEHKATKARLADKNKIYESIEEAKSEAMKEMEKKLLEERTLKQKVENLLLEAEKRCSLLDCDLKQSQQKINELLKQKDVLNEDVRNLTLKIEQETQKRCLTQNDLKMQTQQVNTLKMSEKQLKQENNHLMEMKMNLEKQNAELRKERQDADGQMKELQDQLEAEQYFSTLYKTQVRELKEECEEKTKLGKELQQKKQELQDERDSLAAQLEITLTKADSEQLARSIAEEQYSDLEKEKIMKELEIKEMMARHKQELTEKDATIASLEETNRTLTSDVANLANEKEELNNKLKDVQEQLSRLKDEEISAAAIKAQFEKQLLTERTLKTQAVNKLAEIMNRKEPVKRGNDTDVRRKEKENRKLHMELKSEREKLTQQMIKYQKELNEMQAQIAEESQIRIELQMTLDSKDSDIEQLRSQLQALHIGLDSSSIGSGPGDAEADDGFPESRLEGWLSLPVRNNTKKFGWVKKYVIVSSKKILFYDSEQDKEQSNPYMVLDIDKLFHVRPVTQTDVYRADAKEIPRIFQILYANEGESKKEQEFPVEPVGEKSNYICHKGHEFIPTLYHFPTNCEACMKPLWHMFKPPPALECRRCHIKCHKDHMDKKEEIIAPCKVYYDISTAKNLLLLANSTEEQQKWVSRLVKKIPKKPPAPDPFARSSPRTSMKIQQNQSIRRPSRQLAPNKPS

Row | SMILES | IC50 (ROCK1; 10 μM ATP, Table 2, read-out: Compound IC50 ROCK1) [µM] | IC50 (ROCK1; Compound IC50 ROCK1 10 μM ATP, CRO Eurofins, 10 μM ATP) [µM] | IC50 (ROCK1; Compound IC50 ROCK1 10 μM ATP, CRO Reaction Biology, 10 μM ATP) [µM] | IC50 (ROCK1; Compound IC50 ROCK1 70 μM ATP, Km ATP 70 μM, Table 3) [µM] | IC50 (ROCK1; Compound IC50 ROCK1 70 μM ATP, Km ATP 70 μM, Table 7) [µM] | duration of efficacy on phospho-cofilin ([1]; 10 mg/kg after reperfusion, examined 4 hr or 24 hr) | minimal effective levels ([1]; daily repeat dosing) | minimal effective dose to reverse ROCK activation ([1]; single intraperitoneal application, phospho-cofilin left versus right brain) [mg/kg] | findings in daily repeat dosing ([2]; 1 mg/kg and 10 mg/kg once daily I.P. for 2 weeks) | no observed effect level dose ([2]; 2 week repeat dose, I.P.) [mg/kg] | ½ Life [3] [min] | ½ Life (mouse hepatocytes) [min] | ½ Life (rat hepatocytes) [min] | Fractional Selectivity for ROCK2 (ROCK2 [4]) | Kd (ROCK2 [5]; ROCK2 KD, average of duplicate determinations, Table 5) [µM] | Kd (ROCK2 [5]; ROCK2 Kd, Table 1) [µM] | effect on average systolic blood pressure [6] | inhibitory activity for ROCK2 relative to parent BA-1049 (R) (ROCK2 [7])
1 | C[C@@H](N)C1CCN(S(=O)(=O)c2cccc3cnccc23)CC1 [BA-1049 (R)] | 3.9 | 3.9 | 0.69 | 29.6 | 29.6 | at least 24 hr | less than 1 mg/kg | 1 | no abnormal findings | 10 | 15.3 | 2.2 | 60 | 1.86 | 0.063 | 0.059 | little or no effect on average systolic blood pressure | –
2 | C[C@@H](N)C1CCN(S(=O)(=O)c2cccc3c(=O)[nH]ccc23)CC1 [1-hydroxy-BA-1049 (R)] | – | – | – | – | – | – | – | – | – | – | – | – | – | – | – | – | – | ½ log more potent as an inhibitor of ROCK2 activity than the parent
